Measurements from patent publication US7758886B2, “Pharmaceutical aerosol composition” (Pari GmbH, priority 2003, dated 2010).
In brackets after ≈: the same amount, converted by molar mass. Each block holds one compound with its values, some of them ahead of it.

What was measured:
[1] = Saturation solubility of budesonide in buffered aqueous tyloxapol / DMPC solutions (0.22 μm filtrate); type: physicochemical; details: for solubility: buffered aqueous tyloxapol/DMPC solution, aqueous with cosolvent or surfactant or cyclodextrin, thermodynamic from solid
Procedure: Buffered aqueous solutions of tyloxapol, DMPC and tyloxapol in a mixture with DMPC were prepared. The saturation solubility of budesonide in these solutions was measured by adding an excess of budesonide and treating the sample with heat and ultrasound and subsequently allowing it to stand for equilibration. The equilibrated samples were filtered through a membrane filter with a poor width of 0.22 μm and the content of budesonide in the filtrate was determined.

[2] = Colloidal solubilization of corticosteroid with non-ionic surfactant and lecithin (Lipoid S 100); type: physicochemical; details: for solubility: pH 4.5, aqueous with cosolvent or surfactant or cyclodextrin
Procedure: In analogy to example 2, colloidal solutions of budesonide were prepared using polysorbate 80 as non-ionic surfactant component (instead of tyloxapol) and lecithin of the commercial grade, Lipoid S 100, as phospholipid component. Citric acid and sodium citrate were used as buffer system to adjust the pH to 4.5. Sodium chloride (0.846% w/w) was used as osmotic excipient. Disodium edetate (0.01% w/w) was incorporated as stabilizer preventing oxidation.
The taste of the samples was acceptable. The average diameter of the colloidal structures ranged from about 40 to about 50 nm, with polydispersity indices of 0.2 to 0.3. The colloidal solution with the lowest concentration of the non-ionic surfactant and phospholipid component was also investigated by small angle X-ray scattering, which indicated the presence of colloidal structures which were probably in the form of unilamellar liposomes.
(§1) In analogy to example 9, colloidal solutions of budesonide were prepared using vitamin E TPGS as non-ionic surfactant component and lecithin of the commercial grade, Lipoid S 100, as phospholipid component. The other excipients and their content remained the same as in example 9.
The taste of the samples was acceptable. The particles size of the colloidal structures was about 50 to 55 nm, with polydispersity indices of 0.2 to 0.3.
as §1, with “using both” for “using”, “TPGS and polysorbate 80 in combination” for “TPGS”
In analogy to example 9, colloidal solutions of budesonide were prepared using macrogol-15-hydroxystearate as non-ionic surfactant component and lecithin of the commercial grade, Lipoid S 100, as phospholipid component. The other excipients and their content remained the same as in example 9.
In analogy to example 9, colloidal solutions of were prepared using polysorbate 80 as non-ionic surfactant component and lecithin of the commercial grade, Lipoid S 100, as phospholipid component. However, fluticasone propionate was used instead of budesonide as poorly water soluble active agent. The other excipients and their content remained the same as in example 9.

solubility ([1]; Tyloxapol 0 wt %, DMPC 1 wt %): 20 µg/mL (≈ 46.5 µM) | solubility ([1]; Tyloxapol 1 wt %, DMPC 0.5 wt %): 268 µg/mL (≈ 622 µM) | solubility ([1]; Tyloxapol 1.5 wt %, DMPC 0 wt %): 204 µg/mL (≈ 474 µM) | Saturation concentration of budesonide in DMPC solutions ([1]; on further increasing the DMPC content): could not be increased | solubility ([2]; Polysorbate 80 0.10 wt.%, Lipoid S100 1.0 wt.%, pH 4.5, read-out: Budesonide solubilized): 360 µg/mL | solubility ([2]; Polysorbate 80 0.15 wt.%, Lipoid S100 1.5 wt.%, pH 4.5, read-out: Budesonide solubilized): 430 µg/mL | solubility ([2]; Polysorbate 80 0.25 wt.%, Lipoid S100 1.5 wt.%, pH 4.5, read-out: Budesonide solubilized): 470 µg/mL | solubility ([2]; Polysorbate 80 0.40 wt.%, Lipoid S100 1.5 wt.%, pH 4.5, read-out: Budesonide solubilized): 500 µg/mL | solubility ([2]; Polysorbate 80 0.50 wt.%, Lipoid S100 2.0 wt.%, pH 4.5, read-out: Budesonide solubilized): 830 µg/mL | solubility ([2]; Polysorbate 80 0.50 wt.%, Lipoid S100 3.0 wt.%, pH 4.5, read-out: Budesonide solubilized): 1090 µg/mL | solubility ([2]; Solutrol HS 15 0.10 wt.%, Lipoid S100 1.5 wt.%, read-out: Budesonide solubilized): 430 µg/mL | solubility ([2]; Solutrol HS 15 0.25 wt.%, Lipoid S100 1.5 wt.%, read-out: Budesonide solubilized): 470 µg/mL | solubility ([2]; Solutrol HS 15 0.50 wt.%, Lipoid S100 1.5 wt.%, read-out: Budesonide solubilized): 480 µg/mL | solubility ([2]; Vitamin E TPGS 0.10 wt.%, Lipoid S100 1.0 wt.%, read-out: Budesonide solubilized): 370 µg/mL | solubility ([2]; Vitamin E TPGS 0.10 wt.%, Lipoid S100 1.5 wt.%, read-out: Budesonide solubilized): 440 µg/mL | solubility ([2]; Vitamin E TPGS 0.25 wt.%, Lipoid S100 1.5 wt.%, read-out: Budesonide solubilized): 460 µg/mL | solubility ([2]; Vitamin E TPGS 0.50 wt.%, Lipoid S100 1.5 wt.%, read-out: Budesonide solubilized): 480 µg/mL | solubility ([2]; Vitamin E TPGS 0.50 wt.%, Lipoid S100 2.0 wt.%, read-out: Budesonide solubilized): 800 µg/mL | solubility ([2]; vitamin E TPGS 0.04 wt.-%, polysorbate 80 0.06 wt.-%, lecithin 1.0 wt.-%, read-out: Budesonide colloidally solubilized concentration): 380 µg/mL | solubility ([2]; vitamin E TPGS 0.2 wt.-%, polysorbate 80 0.3 wt.-%, lecithin 3.0 wt.-%, read-out: Budesonide colloidally solubilized concentration): 950 µg/mL
SMILES: CCCC1O[C@@H]2C[C@H]3[C@@H]4CCC5=CC(=O)C=C[C@]5(C)[C@H]4[C@@H](O)C[C@]3(C)[C@]2(C(=O)CO)O1 (stereo partly shown) [Budesonide, budesonide]

Fluticasone prop. solubilized ([2]; Polysorbate 80 0.10 wt.%, Lipoid S100 1.0 wt.%): 0.07 mg/mL | solubility ([2]; Polysorbate 80 0.50 wt.%, Lipoid S100 3.0 wt.%, read-out: Fluticasone prop. solubilized): 180 µg/mL
SMILES: CCC(=O)O[C@]1(C(=O)SCF)[C@H](C)C[C@H]2[C@@H]3C[C@H](F)C4=CC(=O)C=C[C@]4(C)[C@@]3(F)[C@@H](O)C[C@@]21C [Fluticasone prop., fluticasone propionate]
